These results are taken from US7115635B2, “Benzylpiperidine compound” (Mitsubishi Pharma Corporation, priority 2001, dated 2006).

One may read the Cmax as the highest concentration seen after dosing.

Structures are written as SMILES. Where a name gives a salt, the structure may show the parent alone.

The target in one data set is human eosinophil. As to the kind of experiment: Binding inhibitory activity between chemokine ([125I]-eotaxin) and human eosinophil. The following applies: 50 pmol/L [125I]-eotaxin, human eosinophil 2x10^5, 25 C, 1 hr; read-out: IC50 (concentration necessary for decreasing the binding between [125I]-eotaxin and human eosinophil by 50%). As for the experimental part:
Human eosinophil was separated from the anticoagulation treated peripheral blood of a healthy subject by CD16 negative selection method (e.g., J. Immunol. Methods, vol., 145, pp. 105–110, 1991). The separated eosinophil (2×10^5), 50 pmol/L [^125I]-eotaxin (2000 Ci/mmoL, manufactured by AmershamPharmacia Biotech) and a test compound were mixed in 0.1 mL of a binding buffer (50 mmol/L HEPES, 1 mmol/L CaCl2, 5 mmol/L MgCl2, 0.5% bovine serum albumin (BSA), 0.1% sodium azide, pH 7.6), and the mixture was incubated at 25° C. for 1 hr in a multiscreen plate (manufactured by Millipore Corporation). After the completion of the incubation, the reaction mixture in the multiscreen plate was filtered in vacuo and washed with 0.6 mL of a cold washing buffer (50 mmol/L HEPES, 1 mmol/L CaCl2, 5 mmol/L MgCl2, 0.5 mol/L NaCl, 0.1% sodium azide, pH 7.6), and the radioactivity on the filter was measured. […] The IC50 values (concentration of a test compound necessary for decreasing the binding between [^125 I]-eotaxin and human eosinophil by 50%) of some of the compounds of the present invention were as follows.

In the next data set the target is T1, CCR3 (Homo sapiens, UniProt P51677).
T1 construct: Eosinophil separated from the peripheral blood of a healthy subject; endogenous in cells; host or cells: eosinophils from peripheral blood of a healthy subject
T1 sequence (P51677 1-355): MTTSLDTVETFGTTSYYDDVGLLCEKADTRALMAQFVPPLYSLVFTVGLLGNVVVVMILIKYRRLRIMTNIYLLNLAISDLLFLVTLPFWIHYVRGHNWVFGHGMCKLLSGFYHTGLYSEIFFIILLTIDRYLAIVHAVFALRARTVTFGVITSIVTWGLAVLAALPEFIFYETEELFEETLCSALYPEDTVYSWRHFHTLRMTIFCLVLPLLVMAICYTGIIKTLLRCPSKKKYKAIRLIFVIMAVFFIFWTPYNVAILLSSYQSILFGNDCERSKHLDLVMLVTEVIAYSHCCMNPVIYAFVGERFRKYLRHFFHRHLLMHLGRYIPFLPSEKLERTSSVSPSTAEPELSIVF
The data set is described as follows: Effect on intracellular calcium concentration in eosinophil on stimulation with CCL11. Format: cell-based. To be noted: human peripheral blood eosinophil, agonist CCL11 0.3 nmol/L, compound 5 min before stimulation, Fura-2 AM; read-out: IC50 of the increase in the intracellular calcium concentration. As for the experimental part:
The effect of the compound of the present invention on intracellular calcium in eosinophil in the peripheral blood of a healthy subject on stimulation with CCL11 was elavuated by the following method.
Eosinophil separated from the peripheral blood of a healthy subject was suspended in a buffer for measurement (10 mmol/L HEPES, and 0.5% bovine serum albumin-containing hanks' balanced salt solution), and the suspension was incubated in the presence of 5 μmol/L of Fura-2 AM (manufactured by Dojindo Laboratories) at 37° C. for 45 min. After the completion of incubation, the cells were washed three times with the buffer for measurement to remove Fura-2 AM not-incorporated into the cells.
The cell suspension was adjusted to the final concentration of 1×10^6 cells/mL with the buffer for measurement and preserved in a dark place until measurement. The intracellular calcium was measured using FDSS6000 manufactured by Hamamatsu Photonics K.K. That is, a cell suspension (0.1 mL) loaded with Fura-2 AM was placed in a 96 well plate for measurement, and the plate was set on FDSS6000. The fluorescence intensities due to excitation lights at wavelengths 340 nm and 380 nm were measured. The ratio of the fluorescence intensities corresponding to the excitation lights at these two wavelengths was determined to calculate the intracellular calcium concentration. […]
(In general: Calcium assays in cells follow changes in intracellular calcium, usually with a dye or a luminescent sensor.)

Data set [1] is described as follows: Measurement of blood (plasma) concentration. Format: in vivo. To be noted: female rat, LC/MS, administered orally and intravenously (route and dose for Cmax not stated). As for the experimental part:
The compound of the present invention was administered orally and intravenously to female rat, and the plasma concentration of the compound was measured. That is, the test compound was weighed, dissolved or suspended in a medium, diluted to the objective concentration, and orally and intravenously administered. After the administration, the blood was drawn with time from the cervical vein with a heparin treated syringe. The blood was centrifuged, the plasma was separated, and the plasma was preserved at −20° C. until analysis. The concentration of the compound in plasma was measured using LC/MS. The results are shown in the following [Table 3].

As to `Nc1ccc(-c2csc(SCC(=O)NC3CCN(Cc4ccc(Cl)c(Cl)c4)CC3)n2)cc1` [Example 6, [4-(4-aminophenyl)thiazol-2-ylthio]-N-[1-(3,4-dichlorobenzyl)piperidin-4-yl]acetamide], at human eosinophil, the IC50 stood at 11 nM.

`N=C(N)Nc1nc(-c2ccc(CCCCC(=O)NC3CCN(Cc4ccc(Cl)c(Cl)c4)CC3)cc2)cs1` [Example 1, N-[1-(3,4-dichlorobenzyl)piperidin-4-yl]-5-[4-(2-guanidinothiazol-4-yl)phenyl]valeramide]: the IC50 at human eosinophil was 6 nM.

As for `N=C(N)Nc1nc(-c2ccc(OCCCC(=O)NC3CCN(Cc4ccc(Cl)c(Cl)c4)CC3)cc2)cs1` [Example 9, N-[1-(3,4-dichlorobenzyl)piperidin-4-yl]-4-[4-(2-guanidinothiazol-4-yl)phenyloxy]butylamide ½ fumarate ¼ hydrate], the IC50 came to 6 nM on CCR3 and 4 nM on human eosinophil.

`Nc1cccc(-c2csc(SCC(=O)NC3CCN(Cc4ccc(Cl)c(Cl)c4)CC3)n2)c1` [Example 35, [4-(3-aminophenyl)thiazol-2-ylthio]-N-[1-(3,4-dichlorobenzyl)piperidin-4-yl]acetamide]: the Cmax in data set [1] worked out at 3120 ng/mL.
